Results: a melting point compilation (Tetko et al.; mined from patent text by program, amines drawn as free bases though some values may be those of a salt)

| melting point [°C] | Structure (SMILES) |
| --- | --- |
| 195 to 197 | COc1ccc(Nc2nnc(Cc3ccncc3)c3ccccc23)cc1Cl |
| 149 to 151 | CCCCCCCCNC(=O)Nc1ccccc1C(=O)NC1CCN(C(c2ccccc2)c2ccccc2)CC1 |
| 120 to 122 | CCCCCc1c(-c2ccc3cc(OCc4nnn[nH]4)ccc3c2)n(C)c2ccccc12 |
| 142 to 144 | CC(C)c1cccc(C(C)C)c1N=c1cccc(-c2cccc3ccccc23)[nH]1 |
| 124 to 127 | COSN=C1C(=O)N(C)C(=O)N1c1ccccc1F |
| 91 to 93 | CCC1(CC)CN(C(C)(C)C)C(=O)C(CC)(CC)N1OC(=O)c1ccccc1 |
| 147 to 148 | NC(=O)c1ccc(C(c2ccccc2[N+](=O)[O-])(C(F)(F)F)C(F)(F)F)cc1 |
| 138 to 140 | Oc1ccc(-c2nnc(CCCCCCCc3ccccc3)o2)cc1 |
| 233 to 235 | O=C(NC(=O)c1c(F)cccc1F)Nc1cncc(C(F)(F)F)c1 |
| 100 to 113 | O=S(=O)(c1ccccc1)c1ccc2c(c1)NCC(C(F)F)(C(F)F)O2 |
| 48 to 50 | CCOC(=O)c1ccc(N(CC)Cc2ccc(Cl)cc2)cc1 |
| 37 to 39 | Cc1c(F)ccc([N+](=O)[O-])c1Cl |
| 198 to 199 | COc1ccc(C(=O)c2cccc(OCc3nc(-c4ccccc4)oc3C)c2)c(OCC(=O)O)c1 |
| 52 to 53 | Cc1cccc(C(=O)Cc2ccccc2)c1C |
| 182 to 183 | O=C(c1ccc(F)cc1)c1c(OCc2ccccc2)c(=O)ccn1CCO |
| 116 to 117 | CSc1ccc(NS(=O)(=O)c2ccc(C)cc2)c([N+](=O)[O-])c1 |
| 232 to 235 | CCOC(=O)Nc1cccc(-c2ccc3nnc(C)n3n2)c1 |
| 122 to 124 | COC(=O)[C@@H](OS(=O)(=O)c1ccc(C)cc1)[C@H](O)c1ccc(F)cc1 |
| 229 to 230 | Cc1oc(-c2ccccc2)nc1COc1ccc(C(=O)c2ccc(O)cc2OCC(=O)O)cc1 |
| 37.2 | CCCCCCCCc1ccc2nc(-c3ccc(COC(CCCCCC)C(F)(F)F)cc3)sc2c1 (stereo not drawn) |
| 247 to 248 | Cc1nc2c3c(c(C(=O)NC4CC4)cc2n1C)CCC1(Cc2ccccc2C1)N3 |
| 151 to 152 | Cn1cc(-c2cccc(N3Cc4cc(C(C)(C)C)ccc4C3=O)c2CO)cc(Nc2ccc(C3CN(C(=O)OC(C)(C)C)C3)cn2)c1=O |
| 204 to 205 | CC(=O)NC[C@H]1CN(c2ccc(-n3cc(-c4ccncc4)cn3)c(F)c2)C(=O)O1 |

The next lines start with the compound.

| Structure (SMILES) | melting point [°C] |
| --- | --- |
| COc1ccc(/C=C/c2nc3c([nH]2)c(=O)n(C)c(=O)n3C)c(Cl)c1OC | 242 |
| C#CCNC(=O)c1ncn2c1CN(C)C(=O)c1c-2ccc(F)c1Cl | 235 to 237 |
| CCCc1c(OCC(O)COc2ccc3c(=O)cc(CCC(=O)O)oc3c2CCC)ccc(C(C)=O)c1O (stereo not drawn) | 79 to 80 |
| Cc1cc(Cn2cccn2)cc2c1Cc1c(-c3ccsc3)n[nH]c1-2 | 271 to 274 |
| CCS(=O)(=O)N1CCN(CCCCCCNc2cc(OC)cc3c(C)ccnc23)CC1 | 72 to 74 |
| CCCCN1C(=O)CC(=O)N(c2ccccc2)c2cc(Cl)ccc21 | 159 to 161 |
| CCCCc1nc2c(N)nc3cc(-c4ccc(OCCC)cc4)ccc3c2n1CC(C)C | 194 to 197 |
| CN1CCC(=C2c3ccc(Cl)cc3CCn3ccnc32)CC1 | 187 |
| COC(=O)c1ccc(Cl)cc1O | 27 to 30 |
| Cc1nc(N)sc1S(=O)(=O)N1CCN(C)CC1 | 188 |
| O=C(CCl)c1csc(C(=O)CCl)c1 | 154 to 155 |
| CCCCCC(CC(=O)OC)c1cc(C=O)c(OC)cc1OC (stereo not drawn) | 110 to 112 |
| COc1cc(Nc2nccc(-c3ccc(N4CCNCC4)nc3)n2)cc(OC)c1OC | 103 |
| COc1nc(C)c(C)nc1NC(=S)N1CCN(c2cccc(Br)c2)CC1 | 136 to 138 |
| CN(C)S(=O)(=O)c1cccc2c1Sc1ccc(OC3CCCCO3)cc1N2CCCN1CCC(CCO)CC1 (stereo not drawn) | 129 to 131 |
